The source of these data is patent US10646488B2 (Araxes Pharma LLC, priority 2016, dated 2020).

The structures appear in SMILES notation.

For the first experiment, the target named is T1, KRAS G12C 1-169, his-tagged protein, GDP-loaded (Homo sapiens, UniProt P01116, G12C).
T1 construct: KRAS G12C 1-169, his-tagged protein, GDP-loaded
The experiment in a line: Covalent binding (% modification) to KRAS G12C by mass spectrometry. The settings on record: covalent binding to KRAS G12C after a ten minute incubation period. The procedure:
Test compounds were prepared as 10 mM stock solutions in DMSO (Fisher cat # BP-231-100). KRAS G12C 1-169, his-tagged protein, GDP-loaded was diluted to 2 μm in buffer (20 mM Hepes, 150 mM NaCl, 1 mM MgCl2). Compounds were tested for activity as follows:
Compounds were diluted to 50× final test concentration in DMSO in 96-well storage plates. Compound stock solutions were vortexed before use and observed carefully for any sign of precipitation. Dilutions were as follow: • For 100 μM final compound concentration, compounds were diluted to 5000 μM (5 μl 10 mM compound stock+5 μl DMSO and mixed well by pipetting. • For 30 μM final compound concentration, compounds were diluted to 1500 μM (3 μl 10 mM compound stock+17 μl DMSO) and mixed well by pipetting. • For 10 μM final compound concentration, compounds were diluted to 500 μM (2 μl 10 mM compound stock+38 μl DMSO) and mixed well by pipetting. 49 μl of the stock protein solution was added to each well of a 96-well PCR plate (Fisher cat #1423027). 1 μl of the diluted 50× compounds were added to appropriate wells in the PCR plate using 12-channel pipettor. Reactions were mixed carefully and thoroughly by pipetting up/down with a 200·1 multi-channel pipettor. […] 5 μl of 2% formic acid (Fisher cat # A117) in DI H2O was then added to each well followed by mixing with a pipette. The plate was then resealed with aluminum seal and stored on dry ice until analyzed as described below.
The above described assays were analyzed by mass spectrometry according to one of the following two procedures:
The MS instrument is set to positive polarity, 2 GHz resolution, and low mass (1700) mode and allowed to equilibrate for 30 minutes. The instrument is then calibrated, switched to acquisition mode and the appropriate method loaded.
After another 30 minute equilibration time, a blank batch (i.e., buffer) is run to ensure equipment is operating properly. The samples are thawed at 37° C. for 10 minutes, briefly centrifuged, and transfer to the bench top. Wells A1 and H12 are spiked with 1 uL 500 uM internal standard peptide, and the plates centrifuged at 2000×g for 5 minutes. The method is then run and masses of each individual well recorded.
The masses (for which integration data is desired) for each well are pasted into the platemap and exported from the analysis. Masses for the internal standards are exported as well. The data at 50 ppm is extracted for the +19 charge state, and identity of well A1 is assigned using the internal standard spike and integrated. Peak data is exported as a TOF list and the above steps are repeated individually, for the +20, 21, 22, 23, 24, and 25 charge states.
The masses and peak intensities of KRAS G12C protein species were measured using a Dionex RSLCnano system (Thermo Scientific) connected to a Q Exactive Plus mass spectrometer (Thermo Scientific).
[…] of sample was each loaded onto a Aeris™ 3.6 μm WIDEPORE C4 200 Å, LC Column 50×2.1 mm column maintained at 40° C. at a flow rate of 600 μl min^−1 with […] (0.1% formic acid in acetonitrile). The liquid chromatography conditions were 20% solvent B for 1 min, 20% to 60% solvent B for 1.5 min, 60% to 90% solvent for 0.5 min, 90% solvent B for 0.2 min, 90% to 20% solvent B for 0.2 min, and then equilibrated for 1.6 min before the following sample injection. The flow rate was maintained at 600 μl min^−1 throughout the sample analysis.
The mass spectrometer was operated in profile mode at a resolution of 17500, 5 microscans, using 50 msec max injection time and an AGC target of 1e6, and a full mass range from 800-1850 m/z was recorded. The HCD trapping gas was optimized for maximum sensitivity for intact proteins. The ionization method was electrospray ionization, which used a spray voltage of 4 kV, sheath gas flow set to 50 au, auxiliary gas flow set to 10 au and sweep gas flow set to 1 au. […]
With `C=CC(=O)N1[C@H](C)CN(c2nc(N3CC(N(C)C)C3)nc3c(F)c(-c4c(O)cccc4F)c(Cl)cc23)C[C@@H]1C` [Compound 26, 1-((2R,6S)-4-(6-chloro-2-(3-(dimethylamino)azetidin-1-yl)-8-fluoro-7-(2-fluoro-6-hydroxyphenyl)quinazolin-4-yl)-2,6-dimethyl-piperazin-1-yl) prop-2-en-1-one], the Binding % entry is “++ (++ indicates binding activity from 50 to 90%)”.
Consider `C=CC(=O)N1C(C)CN(c2nc(N)nc3c(F)c(-c4c(O)cccc4F)c(Cl)cc23)CC1C` (stereo not shown) [Compound 2, 1-(4-(2-amino-6-chloro-8-fluoro-7-(2-fluoro-6-hydroxyphenyl)quinazolin-4-yl)-2,6-dimethyl-piperazin-1-yl) prop-2-en-1-one], for which the Binding % result is “++ (++ indicates binding activity from 50 to 90%)”.
Regarding `C=CC(=O)N1C[C@@H](C)N(c2nc(NC3CCN(C4CC4)CC3)nc3c(F)c(-c4c(C)ccc5cn[nH]c45)c(Cl)cc23)[C@@H](C)C1` [Compound 43, 1-((3S,5R)-4-(6-chloro-2-((1-cyclopropyl-piperidin-4-yl)amino)-8-fluoro-7-(6-methyl-1H-indazol-7-yl)quinazolin-4-yl)-3,5-dimethyl-piperazin-1-yl) prop-2-en-1-one], the Binding % entry is reported as “++ (++ indicates binding activity from 50 to 90%)”.
With `C=CC(=O)N1C[C@@H](C)N(c2nc(N3CC(N(C)C)C3)nc3c(F)c(-c4c(O)cccc4F)c(Cl)cc23)C[C@H]1C` [Compound 80, 1-((2R,5R)-4-(6-chloro-2-(3-(dimethylamino)azetidin-1-yl)-8-fluoro-7-(2-fluoro-6-hydroxyphenyl)quinazolin-4-yl)-2,5-dimethyl-piperazin-1-yl) prop-2-en-1-one], the Binding % entry is on record as “+ (+ indicates binding activity up to 50%)”.
Regarding `C=CC(=O)N1CCN(c2nc(N3CC(N(C)C)C3)nc3c(F)c(-c4c(C)ccc5cn[nH]c45)c(Cl)cc23)C[C@H]1C` (atropisomer, axis not shown) [Compound 71, 1-((R)-4-((S)-6-chloro-2-(3-(dimethylamino)azetidin-1-yl)-8-fluoro-7-(6-methyl-1H-indazol-7-yl)quinazolin-4-yl)-2-methyl-piperazin-1-yl) prop-2-en-1-one], the Binding % result is on record as “+ (+ indicates binding activity up to 50%)”.
For `C=CC(=O)N1CCN(c2nc(N3CC(O)C3)nc3c(F)c(-c4c(O)cccc4F)c(Cl)cc23)[C@@H](C)C1` [Compound 34, 1-((3S)-4-(6-chloro-8-fluoro-7-(2-fluoro-6-hydroxyphenyl)-2-(3-hydroxy-azetidin-1-yl)quinazolin-4-yl)-3-methyl-piperazin-1-yl) prop-2-en-1-one], the Binding % entry is “++ (++ indicates binding activity from 50 to 90%)”.
Turning to `C=CC(=O)N1[C@H](C)CN(c2nc(N3CC(O)C3)nc3c(F)c(-c4c(O)cccc4F)c(Cl)cc23)C[C@@H]1C` [Compound 35, 1-((2R,6S)-4-(6-chloro-8-fluoro-7-(2-fluoro-6-hydroxyphenyl)-2-(3-hydroxy-azetidin-1-yl)quinazolin-4-yl)-2,6-dimethyl-piperazin-1-yl) prop-2-en-1-one], the Binding % result is “++ (++ indicates binding activity from 50 to 90%)”.
With `C=CC(=O)N1CCN(c2nc(N)nc3c(F)c(-c4c(C)ccc5cn[nH]c45)c(Cl)cc23)[C@@H](C)C1` [Compound 5, 1-((3S)-4-(2-amino-6-chloro-8-fluoro-7-(6-methyl-1H-indazol-7-yl)quinazolin-4-yl)-3-methylpiperazin-1-yl)prop-2-en-1-one], the Binding % result was “++ (++ indicates binding activity from 50 to 90%)”.
As for `C=CC(=O)N1CCN(c2nc(OCCN(CC)CC)nc3c(F)c(-c4c(C)ccc5cn[nH]c45)c(Cl)cc23)[C@@H](C)C1` [Compound 28, 1-((3S)-4-(6-chloro-2-(2-(diethylamino)ethoxy)-8-fluoro-7-(6-methyl-1H-indazol-7-yl)quinazolin-4-yl)-3-methyl-piperazin-1-yl) prop-2-en-1-one], the Binding % entry was “+++ (+++ indicates binding activity greater than 90%)”.

The same experiment, now with this note: covalent binding to KRAS G12C after a three minute incubation period.
For `C=CC(=O)N1C[C@H](C)N(c2nc(N3CC(NC)C3)nc3c(F)c(-c4c(C)ccc5cn[nH]c45)c(Cl)cc23)C[C@H]1C` (atropisomer, axis not shown) [Compound 109, 1-((2R,5S)-4-(6-chloro-8-fluoro-7-((S)-6-methyl-1H-indazol-7-yl)-2-(3-(methylamino)azetidin-1-yl)quinazolin-4-yl)-2,5-dimethyl-piperazin-1-yl) prop-2-en-1-one], the Binding % result is “+ (+ indicates binding activity greater than 0% and up to 50%)”.
As for `C=CC(=O)N1C[C@H](C)N(c2nc(Oc3ccnn3C)nc3c(F)c(-c4cc(O)cc5ccccc45)c(Cl)cc23)C[C@H]1C` [Compound 205, 1-((2R,5S)-4-(6-chloro-8-fluoro-7-(3-hydroxy-naphthalen-1-yl)-2-((1-methyl-1H-pyrazol-5-yl)oxy)quinazolin-4-yl)-2,5-dimethyl-piperazin-1-yl) prop-2-en-1-one], the Binding % result is given as “++ (++ indicates binding activity from 50 to 90%)”.
With `C=CC(=O)N1CCN(c2nc(N3CC(N(CC)CC)C3)nc3c(F)c(-c4c(C)ccc5[nH]ncc45)c(Cl)cc23)C[C@H]1C` [Compound 166, 1-((2R)-4-(6-chloro-2-(3-(diethylamino)azetidin-1-yl)-8-fluoro-7-(5-methyl-1H-indazol-4-yl)quinazolin-4-yl)-2-methyl-piperazin-1-yl) prop-2-en-1-one], the Binding % entry is recorded as “++ (++ indicates binding activity from 50 to 90%)”.
Consider `C=CC(=O)N1C[C@H](C)N(c2nc(OCCN3CC(F)(F)C3)nc3c(F)c(-c4c(C)ccc5cn[nH]c45)c(Cl)cc23)C[C@H]1C` (atropisomer, axis not shown) [Compound 127, 1-((2R,5S)-4-(6-chloro-2-(2-(3,3-difluoroazetidin-1-yl)ethoxy)-8-fluoro-7-((R)-6-methyl-1H-indazol-7-yl)quinazolin-4-yl)-2,5-dimethyl-piperazin-1-yl) prop-2-en-1-one], for which the Binding % entry was “+++ (+++ indicates binding activity greater than 90%)”.
The same measure, in the same setting: then `C=CC(=O)N1C[C@H](C)N(c2nc(N3CC(N)C3)nc3c(F)c(-c4c(C)ccc5[nH]ncc45)c(Cl)cc23)C[C@H]1C` [Compound 165, 1-((2R,5S)-4-(2-(3-aminoazetidin-1-yl)-6-chloro-8-fluoro-7-(5-methyl-1H-indazol-4-yl)quinazolin-4-yl)-2,5-dimethyl-piperazin-1-yl) prop-2-en-1-one], with “++ (++ indicates binding activity from 50 to 90%)”.
With `C=CC(=O)N1C[C@H](C)N(c2nc(N3CC(N(CC)C4CC4)C3)nc3c(F)c(-c4c(C)ccc5[nH]ncc45)c(Cl)cc23)C[C@H]1C` [Compound 125, 1-((2R,5S)-4-(6-chloro-2-(3-(cyclopropyl (ethyl)amino)azetidin-1-yl)-8-fluoro-7-(5-methyl-1H-indazol-4-yl)quinazolin-4-yl)-2,5-dimethyl-piperazin-1-yl) prop-2-en-1-one], the Binding % entry is reported as “++ (++ indicates binding activity from 50 to 90%)”.
Turning to `C=CC(=O)N1C[C@H](C)N(c2nc(N3CC4(CCN4C)C3)nc3c(F)c(-c4c(O)cccc4F)c(Cl)cc23)C[C@H]1C` [Compound 184, 1-((2R,5S)-4-(6-chloro-8-fluoro-7-(2-fluoro-6-hydroxyphenyl)-2-(1-methyl-1,6-diazaspiro[3.3]heptan-6-yl)quinazolin-4-yl)-2,5-dimethyl-piperazin-1-yl) prop-2-en-1-one], the Binding % result is given as “++ (++ indicates binding activity from 50 to 90%)”.
